# Laboratory results taken from patent US20220162167A1, “SUBSTITUTED BICYCLIC AND TETRACYCLIC QUINONES AND USE THEREOF AS ANTI-CANCER AGENTS” (THE REGENTS OF THE UNIVERSITY OF MICHIGAN, priority 2019, published 2022).
# How the values were obtained:
# Format in all cases: cell-based
# [1] = test system: CCRF-CEM; experiment: NCI60 growth inhibition, CCRF-CEM; details: Leukemia
# Procedure: (§1) Representative compounds were tested in 60 cell lines (NCI60) at the National Cancer Institute, Developmental Therapeutics Program.
# (§2) Representative compounds were tested in a panel of 60 cancer cells (NCI 60) at the National Cancer Institute. Growth inhibition are shown in table 2, table 3, table 4, table 5, and FIG. 1, FIG. 2, FIG. 3, FIG. 4, FIG. 5.
# [2] = test system: HL-60(TB); experiment: NCI60 growth inhibition, HL-60(TB); details: Leukemia
# Procedure: as §1, §2
# [3] = test system: K-562; experiment: NCI60 growth inhibition, K-562; details: Leukemia
# Procedure: as §1, §2
# [4] = test system: MOLT-4; experiment: NCI60 growth inhibition, MOLT-4; details: Leukemia
# Procedure: as §1, §2
# [5] = test system: RPMI-8226; experiment: NCI60 growth inhibition, RPMI-8226; details: Leukemia
# Procedure: as §1, §2
# [6] = test system: SR; experiment: NCI60 growth inhibition, SR; details: Leukemia
# Procedure: as §1, §2
# [7] = test system: A549/ATCC; experiment: NCI60 growth inhibition, A549/ATCC; details: Non-Small Cell Lung Cancer
# Procedure: as §1, §2
# [8] = test system: EKVX; experiment: NCI60 growth inhibition, EKVX; details: Non-Small Cell Lung Cancer
# Procedure: as §1, §2
# [9] = test system: HOP-62; experiment: NCI60 growth inhibition, HOP-62; details: Non-Small Cell Lung Cancer; further: test concentration or dose not given here
# Procedure: as §1, §2
# [10] = test system: HOP-92; experiment: NCI60 growth inhibition, HOP-92; details: Non-Small Cell Lung Cancer
# Procedure: as §1, §2
# [11] = test system: NCI-H226; experiment: NCI60 growth inhibition, NCI-H226; details: Non-Small Cell Lung Cancer; further: test concentration or dose not given here
# Procedure: as §1, §2
# [12] = test system: NCI-H23; experiment: NCI60 growth inhibition, NCI-H23; details: Non-Small Cell Lung Cancer
# Procedure: as §1, §2
# [13] = test system: NCI-H322M; experiment: NCI60 growth inhibition, NCI-H322M; details: Non-Small Cell Lung Cancer
# Procedure: as §1, §2
# [14] = test system: NCI-H460; experiment: NCI60 growth inhibition, NCI-H460; details: Non-Small Cell Lung Cancer
# Procedure: as §1, §2
# [15] = test system: NCI-H522; experiment: NCI60 growth inhibition, NCI-H522; details: Non-Small Cell Lung Cancer
# Procedure: as §1, §2
# [16] = test system: COLO 205; experiment: NCI60 growth inhibition, COLO 205; details: Colon Cancer
# Procedure: as §1, §2
# [17] = test system: HCC-2998; experiment: NCI60 growth inhibition, HCC-2998; details: Colon Cancer
# Procedure: as §1, §2
# [18] = test system: HCT-116; experiment: NCI60 growth inhibition, HCT-116; details: Colon Cancer
# Procedure: as §1, §2
# [19] = test system: HCT-15; experiment: NCI60 growth inhibition, HCT-15; details: Colon Cancer; further: test concentration or dose not given here
# Procedure: as §1, §2
# [20] = test system: HT29; experiment: NCI60 growth inhibition, HT29; details: Colon Cancer
# Procedure: as §1, §2
# [21] = test system: KM12; experiment: NCI60 growth inhibition, KM12; details: Colon Cancer; further: test concentration or dose not given here
# Procedure: as §1, §2
# [22] = test system: SW-620; experiment: NCI60 growth inhibition, SW-620; details: Colon Cancer; further: test concentration or dose not given here
# Procedure: as §1, §2
# [23] = test system: SF-268; experiment: NCI60 growth inhibition, SF-268; details: CNS Cancer; further: test concentration or dose not given here
# Procedure: as §1, §2
# [24] = test system: SF-295; experiment: NCI60 growth inhibition, SF-295; details: CNS Cancer; further: test concentration or dose not given here
# Procedure: as §1, §2
# [25] = test system: SF-539; experiment: NCI60 growth inhibition, SF-539; details: CNS Cancer
# Procedure: as §1, §2
# [26] = test system: SNB-19; experiment: NCI60 growth inhibition, SNB-19; details: CNS Cancer; further: test concentration or dose not given here
# Procedure: as §1, §2
# [27] = test system: SNB-75; experiment: NCI60 growth inhibition, SNB-75; details: CNS Cancer; further: test concentration or dose not given here
# Procedure: as §1, §2
# [28] = test system: U251; experiment: NCI60 growth inhibition, U251; details: CNS Cancer
# Procedure: as §1, §2
# [29] = test system: LOX IMVI; experiment: NCI60 growth inhibition, LOX IMVI; details: Melanoma
# Procedure: as §1, §2
compound,measurement,setting,value
"O=C1c2cccnc2C(=O)c2nc3cc(N4CCN(C5CC5)CC4)ccc3nc21 [Compound 49, 9-(4-cyclopropylpiperazin-1-yl)pyrido[2,3-b]phenazine-5,12-dione]",Growth inhibition (% control) GIPRCNT,[1],26.17 % control
same,Growth inhibition (% control) GIPRCNT,[2],−43.09 % control
same,Growth inhibition (% control) GIPRCNT,[3],0.8659 % control
same,Growth inhibition (% control) GIPRCNT,[4],26.2 % control
same,Growth inhibition (% control) GIPRCNT,[5],25.33 % control
same,Growth inhibition (% control) GIPRCNT,[6],−10.03 % control
same,Growth inhibition (% control) GIPRCNT,[7],−53.27 % control
same,Growth inhibition (% control) GIPRCNT,[8],27.37 % control
same,Growth inhibition (% control) GIPRCNT,[9],−56.64 % control
same,Growth inhibition (% control) GIPRCNT,[10],62.46 % control
same,Growth inhibition (% control) GIPRCNT,[11],−49.1 % control
same,Growth inhibition (% control) GIPRCNT,[12],−56.52 % control
same,Growth inhibition (% control) GIPRCNT,[13],−96.67 % control
same,Growth inhibition (% control) GIPRCNT,[14],−54.12 % control
same,Growth inhibition (% control) GIPRCNT,[15],−50.54 % control
same,Growth inhibition (% control) GIPRCNT,[16],−68.34 % control
same,Growth inhibition (% control) GIPRCNT,[17],−80.83 % control
same,Growth inhibition (% control) GIPRCNT,[18],0.8509 % control
same,Growth inhibition (% control) GIPRCNT,[19],−58.81 % control
same,Growth inhibition (% control) GIPRCNT,[20],−21.31 % control
same,Growth inhibition (% control) GIPRCNT,[21],9.272 % control
same,Growth inhibition (% control) GIPRCNT,[22],−37.75 % control
same,Growth inhibition (% control) GIPRCNT,[23],12.46 % control
same,Growth inhibition (% control) GIPRCNT,[24],−88.89 % control
same,Growth inhibition (% control) GIPRCNT,[25],−99.37 % control
same,Growth inhibition (% control) GIPRCNT,[26],−81.52 % control
same,Growth inhibition (% control) GIPRCNT,[27],−64.69 % control
same,Growth inhibition (% control) GIPRCNT,[28],−32.64 % control
same,Growth inhibition (% control) GIPRCNT,[29],−46.5487 % control
